Measurements published in ChEMBL document CHEMBL1146377, “Antitrypanosomal activity of quaternary naphthalimide derivatives” (Bioorg Med Chem Lett, 2007).
pIC50: −log10 of the molar value.

Columns and labels:
[1] = Cytotoxicity against J774.1 cells after 48 hrs; assay type: cell-based; conditions: Mus musculus, J774.1, 48 h
[2] = tested on: Trypanosoma brucei brucei; assay: Antitrypanosomal activity against Trypanosoma brucei brucei after 48 hrs; assay type: functional, organism-based

SMILES	pIC50 [2]	pIC50 [1]
NCCC[C@](N)(C(=O)O)C(F)F [EFLORNITHINE]	4.64	–
CC(C)(CN1C(=O)c2cccc3cc(N)cc(c23)C1=O)C[N+](C)(C)CCCCCC[N+](C)(C)CCCN1C(=O)c2ccccc2C1=O	4.62	< 4.00
CC(C)(CN1C(=O)c2cccc3cc([N+](=O)[O-])cc(c23)C1=O)C[N+](C)(C)CCCCCC[N+](C)(C)CCCN1C(=O)c2ccccc2C1=O	4.64	< 4.00
CC(C)(CN1C(=O)c2cccc3ccc(N)c(c23)C1=O)C[N+](C)(C)CCCCCC[N+](C)(C)CCCN1C(=O)c2ccccc2C1=O	5.23	< 4.00
Cc1ccc2c(c1)C(=O)N(CCC[N+](C)(C)CCCCCC[N+](C)(C)CCCN1C(=O)c3cccc4cccc(c34)C1=O)C2=O	4.55	< 4.00
CC(C)(CN1C(=O)c2cccc3ccc([N+](=O)[O-])c(c23)C1=O)C[N+](C)(C)CCCCCC[N+](C)(C)CCCN1C(=O)c2ccccc2C1=O	5.06	< 4.00
Cc1ccc2c(c1)C(=O)N(CCC[N+](C)(C)CCCCCC[N+](C)(C)CC(C)(C)CN1C(=O)c3cccc4cccc(c34)C1=O)C2=O	5.34	< 4.00
CC(C)(CN1C(=O)c2cccc3cccc(c23)C1=O)C[N+](C)(C)CCCCCC[N+](C)(C)CCCN1C(=O)c2cccc3cccc(c23)C1=O	5.37	< 4.00

These reach a higher pIC50 [2]. Values come first.

pIC50 [2]	SMILES	pIC50 [1]
6.16	CC(C)(CN1C(=O)c2cccc3cccc(c23)C1=O)C[N+](C)(C)CCCCCCBr	< 4.00
5.92	CCC[N+](C)(C)CC(C)(C)CN1C(=O)c2cccc3cccc(c23)C1=O	< 4.00
5.93	CC(C)(CN1C(=O)c2cccc3cccc(c23)C1=O)C[N+](C)(C)CCCCCC[N+](C)(C)CC(C)(C)CN1C(=O)c2cccc3cccc(c23)C1=O	< 4.00
7.52	CN(CCCCCCN(C)CCCN1C(=O)c2cccc3cccc(c23)C1=O)CCCN1C(=O)c2cccc3cccc(c23)C1=O	5.49
8.57	N=C(N)c1ccc(OCCCCCOc2ccc(C(=N)N)cc2)cc1 [PENTAMIDINE ISETHIONATE]	–
6.52	Cc1ccc(C(=O)Nc2ccc(S(=O)(=O)O)c3cc(S(=O)(=O)O)cc(S(=O)(=O)O)c23)cc1NC(=O)c1cccc(NC(=O)Nc2cccc(C(=O)Nc3cc(C(=O)Nc4ccc(S(=O)(=O)O)c5cc(S(=O)(=O)O)cc(S(=O)(=O)O)c45)ccc3C)c2)c1 [SURAMIN HEXASODIUM]	–
